Results: patent US20240069010A1, “TISSUE ORGANOID BIOPRINTING AND HIGH-THROUGHPUT SCREENING METHODOLOGY” (priority 2020, published 2024)

How the values were obtained:
[1] = test system: MCF-7 organoids; experiment: HSLCI mass tracking of bioprinted organoids in drug screening; format: cell-based; conditions: for Mean mass of MCF-7 organoids, Mean mass ± SD: 48 hours of treatment; for Organoid Behavior (%) Stable / Organoid Behavior (%) Gained Mass / Organoid Behavior (%) Lost Mass: MCF-7 organoids; for Organoid Behavior (%) Stable: mass change <10%; for Organoid Behavior (%) Gained Mass: mass increase >10%; for Organoid Behavior (%) Lost Mass: mass loss >10%
Text: (§1) Cells were bioprinted using a CELLINK BioX with a Temperature-Controlled Printhead. Gcode files were written to print the desired single-layer geometry. We wrote standardized blocks of Gcode encode the print path for the repeated geometries. MATLAB (MathWorks, Inc.) was used to integrate these standardized blocks into full Gcode files with the defined coordinates for each well. We used 8-well plates when printing the larger constructs as the depth of the well in a standard 24-well plate prohibited the use of 0.5″ length needles. Large rings were necessary to deposit a sufficient number of cells for RNA-Seq and IHC. Four rings with a diameter of 14.5 mm were printed for RNA sequencing (approximately 200,000 cells total), while four sets of concentric 14.5 mm, 12.5 mm, and 10.5 mm diameter rings were used for IHC analysis (approximately 500,000 cells total). We printed mini-squares with side length 3.9 mm for drug screening and HSLCI imaging. The mini-squares were inscribed within the circular well with sides parallel to the sides of the well plate. The open center of the constructs facilitates automatic manipulation with fluid handling equipment while the sides of the square are positioned to maximize the number of organoids imaged by HSLCI. The bioprinting process utilized the same material deposited for manually seeded organoids. A single cell suspension, aggregates or clusters in a 3:4 mixture of MammoCult™ and Matrigel® was prepared on ice. After vortexing briefly to homogenize, the mixture was transferred into a 3 mL syringe by removing the plunger and capping the opposite end. Once the plunger was replaced, the syringe was inverted, and bubbles were forced out of the tip. The material was then transferred to a room temperature 3 mL bioprinter cartridge (CELLINK) by connecting the syringe and cartridge with a double-sided female Luer lock adapter (CELLINK). Any air bubbles in the syringe were removed and the loaded cartridge was incubated in a rotating incubator (Enviro-Genie, Scientific Industries) for 30 minutes at the print temperature.
(§2) During the incubation period, the printer was sterilized with the built-in UV irradiation function and the printhead was set to the print temperature. […] The well masks were autoclaved prior to use. The masks were inserted into the well plate and pressed in contact with the glass surface. Rubber bands were used to hold the masks in place and ensure conformal contact was maintained throughout the plasma treatment. The well plates were treated with oxygen plasma in a PE-25 (Plasma Etch) for 30-90 seconds, 15 minutes prior to bioprinting. After plasma treatment, the well plate was placed in the bioprinter and Automatic Bed Levelling (ABL) was performed.
(§3) Once the incubation period ended, we attached a 0.5″ 25-gauge needle and loaded the cartridge into the pre-cooled printhead. We primed the needle by extruding a small volume of material at 15 kPa prior to calibrating the printer. Just before printing, we cleared the needle of the gelled material by extruding a small volume using 40 kPa prior to starting the print. To create constructs of the appropriate thicknesses, prints in 8-well plates were extruded at 15 kPa while prints in 96-well plates were extruded at 12-15 kPa. […] After printing, the constructs were incubated at 37° C. for at least 30 minutes to solidify the matrix and 100 μL of MammoCult™ medium was then added.
(§4) The HSLCI platform was installed inside a standard cell culture incubator. For all growth kinetics studies and drug screening, organoids were imaged in 96-well glass-bottom plates (Cellvis P96-1.5H-N) using a 40× objective (Nikon, NA 0.75). Organoids were seeded as single-cell suspensions in a 3:4 mixture of MammoCult™ and Matrigel® as described above and were grown at 37° C. and 5% CO2 in MammoCult™ medium supplemented with 1% antibiotic-antimycotic (Gibco 15240-062).

[2] = test system: BT-474 organoids; experiment: as above; format: cell-based; conditions: for Organoid Behavior (%) Gained Mass: mass increase >10%; for Organoid Behavior (%) Lost Mass: mass loss >10%; for Organoid Behavior (%) Stable: mass change <10%
Text: as §1, §2, §3, §4

With CN[C@@H]1C[C@H]2O[C@@](C)([C@@H]1OC)n1c3ccccc3c3c4c(c5c6ccccc6n2c5c31)C(=O)NC4 [Staurosporine, staurosporine] as the compound, how does the “Mean mass of MCF-7 organoids, Mean mass ± SD” value ([1]; 1 μM) read?
Its value is 1.33 ± 1.07 ng.

What about the “Mean mass of MCF-7 organoids, Mean mass ± SD” value ([1]; 1 μM, listed as staurosporine) of the same compound?
Its value is 1.33 ± 1.08 ng.

And the “Mean mass of MCF-7 organoids, Mean mass ± SD” value ([1]; 10 μM)?
Its value is 1.26 ± 0.78 ng.

What about the “Mean mass of MCF-7 organoids, Mean mass ± SD” value ([1]; 10 μM, listed as staurosporine) of the same compound?
The value was 1.26 ± 0.80 ng.

And the “Organoid Behavior (%) Stable” value ([1]; 0.1 μM, 12 h)?
Its value is 76.5%.

What about the “Organoid Behavior (%) Gained Mass” value ([1]; 0.1 μM, 12 h) of the same compound?
Its value is 8.8%.

And the “Organoid Behavior (%) Lost Mass” value ([1]; 0.1 μM, 12 h)?
The value was 14.7%.

What about the “Organoid Behavior (%) Stable” value ([1]; 0.1 μM, 24 h) of the same compound?
Its value is 60.5%.

And the “Organoid Behavior (%) Lost Mass” value ([1]; 0.1 μM, 24 h)?
The value was 23.3%.

And the “Organoid Behavior (%) Stable” value ([1]; 0.1 μM, 48 h)?
The value was 38.2%.

And the “Organoid Behavior (%) Gained Mass” value ([1]; 0.1 μM, 48 h)?
The value was 29.4%.

What about the “Organoid Behavior (%) Lost Mass” value ([1]; 0.1 μM, 48 h) of the same compound?
The value was 32.4%.

What about the “Organoid Behavior (%) Stable” value ([1]; 1 μM, 12 h) of the same compound?
The value was 82.1%.

And the “Organoid Behavior (%) Gained Mass” value ([1]; 1 μM, 12 h)?
Its value is 7.1%.

And the “Organoid Behavior (%) Lost Mass” value ([1]; 1 μM, 12 h)?
The value was 10.7%.

What about the “Organoid Behavior (%) Stable” value ([1]; 1 μM, 24 h) of the same compound?
Its value is 71.4%.

What about the “Organoid Behavior (%) Gained Mass” value ([1]; 1 μM, 24 h) of the same compound?
The value was 3.6%.

And the “Organoid Behavior (%) Lost Mass” value ([1]; 1 μM, 24 h)?
Its value is 25.0%.

And the “Organoid Behavior (%) Stable” value ([1]; 1 μM, 48 h)?
The value was 73.3%.

What about the “Organoid Behavior (%) Lost Mass” value ([1]; 1 μM, 48 h) of the same compound?
Its value is 26.7%.

And the “Organoid Behavior (%) Stable” value ([1]; 10 μM, 12 h)?
The value was 79.6%.

And the “Organoid Behavior (%) Gained Mass” value ([1]; 10 μM, 12 h)?
The value was 2.0%.

And the “Organoid Behavior (%) Lost Mass” value ([1]; 10 μM, 12 h)?
The value was 18.4%.

What about the “Organoid Behavior (%) Stable” value ([1]; 10 μM, 24 h) of the same compound?
Its value is 51.4%.

What about the “Organoid Behavior (%) Gained Mass” value ([1]; 10 μM, 24 h) of the same compound?
The value was 0.0%.

And the “Organoid Behavior (%) Lost Mass” value ([1]; 10 μM, 24 h)?
The value was 48.6%.

And the “Organoid Behavior (%) Stable” value ([1]; 10 μM, 48 h)?
Its value is 32.1%.

And the “Organoid Behavior (%) Gained Mass” value ([1]; 10 μM, 48 h)?
Its value is 3.6%.

And the “Organoid Behavior (%) Lost Mass” value ([1]; 10 μM, 48 h)?
Its value is 64.3%.

What about the “Mean mass of BT-474 organoids, Mean mass ± SD” value ([2]; 1 μM, 6 hours of treatment) of the same compound?
Its value is 1.38 ± 0.49 ng.

What about the “Mean mass of BT-474 organoids, Mean mass ± SD” value ([2]; 1 μM, 48 hours of treatment) of the same compound?
Its value is 0.70 ± 0.26 ng.

What about the “Mean mass of BT-474 organoids, Mean mass ± SD” value ([2]; 1 μM, 48 hours of treatment, listed as staurosporine) of the same compound?
The value was 0.70 ± 0.26 ng.

And the “Mean mass of BT-474 organoids, Mean mass ± SD” value ([2]; 10 μM, 6 hours of treatment)?
The value was 1.46 ± 0.72 ng.

And the “Mean mass of BT-474 organoids, Mean mass ± SD” value ([2]; 10 μM, 48 hours of treatment)?
Its value is 0.83 ± 0.72 ng.

And the “Mean mass of BT-474 organoids, Mean mass ± SD” value ([2]; 10 μM, 48 hours of treatment, listed as staurosporine)?
The value was 0.83 ± 0.72 ng.

What about the “Organoid Behavior (%) Gained Mass” value ([2]; BT-474 organoids, 0.1 μM, 12 h) of the same compound?
The value was 27.6%.

And the “Organoid Behavior (%) Lost Mass” value ([2]; BT-474 organoids, 0.1 μM, 12 h)?
The value was 1.7%.

What about the “Organoid Behavior (%) Stable” value ([2]; BT-474 organoids, 0.1 μM, 24 h) of the same compound?
Its value is 50.0%.

And the “Organoid Behavior (%) Gained Mass” value ([2]; BT-474 organoids, 0.1 μM, 24 h)?
The value was 45.8%.

What about the “Organoid Behavior (%) Lost Mass” value ([2]; BT-474 organoids, 0.1 μM, 24 h) of the same compound?
The value was 4.2%.

And the “Organoid Behavior (%) Stable” value ([2]; BT-474 organoids, 0.1 μM, 48 h)?
Its value is 23.4%.

And the “Organoid Behavior (%) Gained Mass” value ([2]; BT-474 organoids, 0.1 μM, 48 h)?
Its value is 70.1%.

What about the “Organoid Behavior (%) Lost Mass” value ([2]; BT-474 organoids, 0.1 μM, 48 h) of the same compound?
The value was 6.5%.

What about the “Organoid Behavior (%) Stable” value ([2]; BT-474 organoids, 1 μM, 12 h) of the same compound?
The value was 47.6%.

And the “Organoid Behavior (%) Gained Mass” value ([2]; BT-474 organoids, 1 μM, 12 h)?
The value was 19.0%.

What about the “Organoid Behavior (%) Gained Mass” value ([2]; BT-474 organoids, 1 μM, 12 h, listed as staurosporine) of the same compound?
The value was 19%.

And the “Organoid Behavior (%) Stable” value ([2]; BT-474 organoids, 1 μM, 24 h)?
The value was 29.5%.

What about the “Organoid Behavior (%) Gained Mass” value ([2]; BT-474 organoids, 1 μM, 24 h) of the same compound?
Its value is 13.6%.

And the “Organoid Behavior (%) Lost Mass” value ([2]; BT-474 organoids, 1 μM, 24 h)?
Its value is 56.8%.

What about the “Organoid Behavior (%) Stable” value ([2]; BT-474 organoids, 1 μM, 48 h) of the same compound?
Its value is 12.0%.

And the “Organoid Behavior (%) Gained Mass” value ([2]; BT-474 organoids, 1 μM, 48 h)?
The value was 4.0%.

What about the “Organoid Behavior (%) Lost Mass” value ([2]; BT-474 organoids, 1 μM, 48 h) of the same compound?
The value was 84.0%.

What about the “reduction in the number of organoids that increased in size” value ([2]; BT-474 organoids, 1 μM, after 12 hours, compared to the control) of the same compound?
The value was 60%.

What about the “Organoid Behavior (%) Stable” value ([2]; BT-474 organoids, 10 μM, 12 h) of the same compound?
Its value is 64.3%.

What about the “Organoid Behavior (%) Gained Mass” value ([2]; BT-474 organoids, 10 μM, 12 h) of the same compound?
The value was 7.1%.

What about the “Organoid Behavior (%) Lost Mass” value ([2]; BT-474 organoids, 10 μM, 12 h) of the same compound?
The value was 28.6%.

What about the “Organoid Behavior (%) Stable” value ([2]; BT-474 organoids, 10 μM, 24 h) of the same compound?
The value was 23.9%.

And the “Organoid Behavior (%) Gained Mass” value ([2]; BT-474 organoids, 10 μM, 24 h)?
The value was 19.6%.

And the “Organoid Behavior (%) Lost Mass” value ([2]; BT-474 organoids, 10 μM, 24 h)?
The value was 56.5%.

And the “Organoid Behavior (%) Gained Mass” value ([2]; BT-474 organoids, 10 μM, 48 h)?
The value was 14.8%.

And the “Organoid Behavior (%) Lost Mass” value ([2]; BT-474 organoids, 10 μM, 48 h)?
The value was 66.7%.
